In patent US5554542A, “Immunoassay for isothiazolones” (Rohm and Haas Company, priority 1993, dated 1996):

Columns and labels:
[1] = system: antibodies produced by cell culture 89-147EH9; assay: CIEIA for detection of biocides, four inhibitors at several concentrations; assay type: binding, mouse; settings: no inhibitor 515
Protocol: The supernatants from wells with growing colonies of hybridomas were screened using CIEIA. Ninety-six well polystyrene EIA ([…]) plates were coated with 100 μl of 651 conjugated to BSA (651-BSA) for at least two hours at room temperature or 16 hours at 4° C. Unbound material was washed from the wells with five washes of PBS-T. […] The wells then received 50 μl of supernatant from each cell culture, so that each supernatant was reacted with either buffer, 651 or 573 (inhibitors). […] The wells were incubated for 30-60 minutes at room temperature. They were then washed five times with PBS-T to remove unbound material and each well then received 100 μl of a 1 μg/ml solution of biotinylated horse anti-mouse IgG (Vector Laboratories, Burlingame, Calif.), and the assay continued as described for the ELISA, supra.

[2] = system: anti-651 antibody covalently linked to horseradish peroxidase; assay: Colorometric determination of isothiazolones in wood with anti-651-HRP; assay type: binding; settings: pressure treated Southern Yellow pine wafer, anti-651-HRP 500 ng/ml, ABTS, corrected for background; control wafer 0.002
Protocol: Southern Yellow pine, which had been pressure treated with a solution containing 4,5-dichloro-2-n-octyl-3-isothiazolone using commercial methods, was cut into wafers (0.5×2.5 cm). These wood wafers were soaked in a solution of 3% nonfat milk for 30 minutes. The wafers were then rinsed briefly with PBS-T, and then exposed to the anti-651 antibody, which is covalently linked to horseradish peroxidase at 500 ng/ml, for 15 minutes. The wafers were then washed twice for 30 minutes each in PBS-T buffer. The bound anti-651-HRP complex was visualized by placing the wafers in a vial containing HRP substrate (ABTS). The appearance of a […] color in the solution indicated the presence of 4,5-dichloro-2-n-octyl-3-isothiazolone. A 200 μl aliquot of the solution in the vial was taken and the absorbance determined at 405 nm. This was compared to a control wood wafer treated in an identical manner but containing no isothiazolone. The absorbance values were then corrected for background.

Row | A405 [2] | SMILES | 10 Minute Absorbances × 1000 ([1]; inhibitor concentration 0.08 ppm) | 10 Minute Absorbances × 1000 ([1]; inhibitor concentration 0.4 ppm) | 10 Minute Absorbances × 1000 ([1]; inhibitor concentration 2 ppm) | 10 Minute Absorbances × 1000 ([1]; inhibitor concentration 10 ppm) | 10 Minute Absorbances × 1000 ([1]; inhibitor concentration 50 ppm)
1 | – | CNC(=O)CC(=O)O [NMA, Nmethyl malonamic acid] | 429 | 519 | 496 | 518 | 490
2 | 0.165 | CCCCCCCCn1sc(Cl)c(Cl)c1=O [compound 287, 4,5-dichloro-2-n-octyl-3-isothiazolone] | – | – | – | – | –
3 | – | CCCCCCCCn1sccc1=O [compound 893, 2-n-octyl-3-isothiazolone] | – | – | 514 | 589 | 516
